Experimental data reported in patent US20240139211A1, “METHODS AND COMPOSITIONS FOR TREATING AMYOTROPHIC LATERAL SCLEROSIS” (Amylyx Pharmaceuticals, Inc., priority 2022, published 2024).
Read-outs that look alike come from different tables or passages of the source.

What was measured:
P-gp = P-gp (Homo sapiens, UniProt P08183); experiment: Substrate of P-gp (Caco-2 cells, selective inhibitors)
MATE1 = biological target: T1, MATE1 (Homo sapiens, UniProt Q96FL8); experiment: Inhibitor of MATE1, probe substrate uptake; conditions: for potency estimated from few doses: read-out: Estimated IC50, MATE1; for Inhibition of MATE1 / Inhibitor of MATE1: two concentrations per test article
T1 sequence (Q96FL8 1-570): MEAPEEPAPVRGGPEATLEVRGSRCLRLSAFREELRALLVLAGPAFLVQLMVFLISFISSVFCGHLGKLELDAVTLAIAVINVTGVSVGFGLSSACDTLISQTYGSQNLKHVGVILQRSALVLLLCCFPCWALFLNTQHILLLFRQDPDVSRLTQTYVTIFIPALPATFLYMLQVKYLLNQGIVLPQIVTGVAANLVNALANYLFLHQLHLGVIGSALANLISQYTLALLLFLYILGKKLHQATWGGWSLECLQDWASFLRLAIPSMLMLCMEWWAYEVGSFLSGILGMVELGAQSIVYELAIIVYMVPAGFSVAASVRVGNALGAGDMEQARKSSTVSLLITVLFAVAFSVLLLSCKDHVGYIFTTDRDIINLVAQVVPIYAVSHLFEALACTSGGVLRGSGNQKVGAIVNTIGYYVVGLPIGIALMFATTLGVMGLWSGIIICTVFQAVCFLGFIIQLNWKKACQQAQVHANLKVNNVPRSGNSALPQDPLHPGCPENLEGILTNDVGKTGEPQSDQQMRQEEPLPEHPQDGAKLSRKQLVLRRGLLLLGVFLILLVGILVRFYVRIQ

OCT1 = biological target: T2, OCT1 (Homo sapiens, UniProt O15245); experiment: Inhibitor of OCT1, probe substrate uptake; conditions: for Inhibition of OCT1 / Inhibitor of OCT1: two concentrations per test article; for potency estimated from few doses: read-out: Estimated IC50, OCT1
T2 sequence (O15245 1-554): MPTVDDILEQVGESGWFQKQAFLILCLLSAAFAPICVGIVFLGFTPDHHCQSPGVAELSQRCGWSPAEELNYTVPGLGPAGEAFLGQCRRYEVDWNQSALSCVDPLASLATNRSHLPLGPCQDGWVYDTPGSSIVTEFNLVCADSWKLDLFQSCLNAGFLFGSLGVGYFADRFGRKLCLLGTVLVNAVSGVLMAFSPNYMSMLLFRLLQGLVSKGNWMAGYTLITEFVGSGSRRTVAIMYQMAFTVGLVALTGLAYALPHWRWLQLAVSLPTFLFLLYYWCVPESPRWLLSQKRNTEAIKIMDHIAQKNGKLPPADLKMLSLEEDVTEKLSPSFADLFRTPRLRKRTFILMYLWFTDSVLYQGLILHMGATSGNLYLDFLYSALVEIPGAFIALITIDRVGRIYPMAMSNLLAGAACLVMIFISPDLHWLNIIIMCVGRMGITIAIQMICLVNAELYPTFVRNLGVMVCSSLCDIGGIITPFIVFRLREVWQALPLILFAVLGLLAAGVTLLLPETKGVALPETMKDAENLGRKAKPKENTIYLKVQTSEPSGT

OAT1 = biological target: T3, OAT1 (Homo sapiens, UniProt Q4U2R8); experiment: Substrate of OAT1, uptake in HEK293 cells
T3 sequence (Q4U2R8 1-563): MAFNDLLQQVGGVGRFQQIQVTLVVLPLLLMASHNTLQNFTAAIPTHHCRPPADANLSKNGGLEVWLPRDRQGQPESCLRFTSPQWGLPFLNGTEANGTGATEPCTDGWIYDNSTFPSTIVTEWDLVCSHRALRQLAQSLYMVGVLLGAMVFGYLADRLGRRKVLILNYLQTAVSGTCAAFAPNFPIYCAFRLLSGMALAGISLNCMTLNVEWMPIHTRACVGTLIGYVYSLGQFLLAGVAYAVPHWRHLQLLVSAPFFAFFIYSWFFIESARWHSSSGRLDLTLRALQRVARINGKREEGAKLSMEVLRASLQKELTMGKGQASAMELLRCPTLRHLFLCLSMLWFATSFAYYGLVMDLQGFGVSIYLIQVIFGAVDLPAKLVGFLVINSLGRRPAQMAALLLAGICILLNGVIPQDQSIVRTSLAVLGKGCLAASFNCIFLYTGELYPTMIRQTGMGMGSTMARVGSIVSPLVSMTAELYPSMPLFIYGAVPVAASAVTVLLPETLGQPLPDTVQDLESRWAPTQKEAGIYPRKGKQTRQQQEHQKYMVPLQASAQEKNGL
Description: (§1) Vector-transfected HEK cells were used as a control.

OCT2 = biological target: T4, OCT2 (Homo sapiens, UniProt O15244); experiment: Substrate of OCT2, uptake in HEK293 cells
T4 sequence (O15244 1-555): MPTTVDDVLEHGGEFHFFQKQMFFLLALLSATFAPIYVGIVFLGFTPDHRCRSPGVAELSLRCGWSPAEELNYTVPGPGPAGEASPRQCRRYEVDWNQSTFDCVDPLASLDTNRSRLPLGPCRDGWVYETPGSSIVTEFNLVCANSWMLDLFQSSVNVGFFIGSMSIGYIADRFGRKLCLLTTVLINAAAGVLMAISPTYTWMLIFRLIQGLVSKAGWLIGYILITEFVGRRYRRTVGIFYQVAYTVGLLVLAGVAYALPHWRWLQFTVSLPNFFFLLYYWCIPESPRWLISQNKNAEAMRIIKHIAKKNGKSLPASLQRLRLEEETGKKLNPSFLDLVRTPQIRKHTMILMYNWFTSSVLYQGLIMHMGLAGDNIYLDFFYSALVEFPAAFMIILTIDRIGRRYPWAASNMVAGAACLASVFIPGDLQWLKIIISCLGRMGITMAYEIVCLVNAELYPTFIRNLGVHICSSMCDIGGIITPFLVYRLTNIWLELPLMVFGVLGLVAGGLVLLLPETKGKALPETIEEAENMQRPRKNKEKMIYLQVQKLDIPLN
Description: as §1

[1] = test article 1 and 10 μM, Caco-2 cells
[2] = estimated from two concentrations

P-gp, sequence (P08183 whole entry): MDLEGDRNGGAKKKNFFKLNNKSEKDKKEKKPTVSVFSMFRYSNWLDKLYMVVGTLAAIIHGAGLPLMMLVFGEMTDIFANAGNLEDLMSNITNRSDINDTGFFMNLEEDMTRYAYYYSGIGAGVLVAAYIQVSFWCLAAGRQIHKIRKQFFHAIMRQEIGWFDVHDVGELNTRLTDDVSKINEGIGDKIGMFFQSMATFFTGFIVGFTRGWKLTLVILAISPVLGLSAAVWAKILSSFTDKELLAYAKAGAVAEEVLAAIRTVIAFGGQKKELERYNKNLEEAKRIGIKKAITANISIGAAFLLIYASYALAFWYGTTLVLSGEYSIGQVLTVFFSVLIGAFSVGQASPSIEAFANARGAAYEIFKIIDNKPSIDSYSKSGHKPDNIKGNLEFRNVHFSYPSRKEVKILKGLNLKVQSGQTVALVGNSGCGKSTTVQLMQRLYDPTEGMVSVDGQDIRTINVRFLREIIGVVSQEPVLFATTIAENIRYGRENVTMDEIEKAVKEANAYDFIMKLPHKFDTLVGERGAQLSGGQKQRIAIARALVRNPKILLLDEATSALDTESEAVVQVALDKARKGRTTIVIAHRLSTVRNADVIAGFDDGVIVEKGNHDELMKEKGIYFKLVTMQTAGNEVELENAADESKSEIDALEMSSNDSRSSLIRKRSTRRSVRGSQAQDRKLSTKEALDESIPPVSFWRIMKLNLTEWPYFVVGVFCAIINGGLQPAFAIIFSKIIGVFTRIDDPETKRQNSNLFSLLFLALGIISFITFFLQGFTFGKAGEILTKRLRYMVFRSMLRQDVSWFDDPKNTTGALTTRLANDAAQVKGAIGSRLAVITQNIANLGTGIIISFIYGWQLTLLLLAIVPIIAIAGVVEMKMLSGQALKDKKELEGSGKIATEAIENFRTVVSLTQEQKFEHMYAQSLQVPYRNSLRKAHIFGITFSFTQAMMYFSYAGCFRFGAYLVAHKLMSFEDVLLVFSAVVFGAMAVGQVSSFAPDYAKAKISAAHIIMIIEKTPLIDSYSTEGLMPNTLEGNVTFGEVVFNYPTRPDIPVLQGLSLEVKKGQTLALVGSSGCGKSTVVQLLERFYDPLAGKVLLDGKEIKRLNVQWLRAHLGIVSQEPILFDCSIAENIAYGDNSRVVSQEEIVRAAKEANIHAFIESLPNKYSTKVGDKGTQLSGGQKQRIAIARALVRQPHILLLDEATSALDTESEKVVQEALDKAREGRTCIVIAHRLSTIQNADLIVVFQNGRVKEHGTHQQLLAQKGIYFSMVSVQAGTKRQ

Molecule | Efflux remaining with zosuquidar (P-gp; Caco-2) [%] | Substrate of P-gp (P-gp; Caco-2, 1 and 10 μM) | Efflux remaining with verapamil (P-gp; Caco-2, at 10 μM) [%] | Substrate of P-gp (P-gp; [1]) | potency estimated from few doses (MATE1; [2]) [µM] | Inhibition of MATE1 (MATE1) | Inhibitor of MATE1 (MATE1) | Inhibition of OCT1 (OCT1) | Inhibitor of OCT1 (OCT1) | Uptake activity remaining, MATE1 (MATE1; 250 μM) [%] | Substrate of OAT1 (OAT1; 1 and 10 μM) | Substrate of OAT1 (OAT1; test article 1 and 10 μM) | Substrate of OCT2 (OCT2; 1 and 10 μM) | Substrate of OCT2 (OCT2; test article 1 and 10 μM) | potency estimated from few doses (MATE1; estimated from two doses) [µM] | potency estimated from few doses (OCT1; [2]) [µM] | potency estimated from few doses (OCT1; estimated from two doses) [µM]
C[C@H](CCC(=O)NCC(=O)O)[C@H]1CC[C@H]2[C@@H]3[C@@H](O)C[C@@H]4C[C@H](O)CC[C@]4(C)[C@H]3CC[C@]12C [Glycoursodeoxycholic acid, glycoursodeoxycholic acid] | < 55.3 | as a substrate | 74.7 | Yes | > 100 | inhibited | Yes | did not inhibit | No |  |  |  |  |  |  |  | 
O=C(O)CCCc1ccccc1 [PB, sodium phenylbutyrate] |  | not a substrate |  | No | < 250 | inhibited | Yes | did not inhibit | No | 43.7 |  |  |  |  |  |  | 
O=C(O)Cc1ccccc1 [Phenylacetic acid, phenylacetic acid] |  | not a substrate |  | No |  | did not inhibit | No^a | did not inhibit | No |  | not a substrate | No | not a substrate | No |  |  | 
tauroursodeoxycholic acid [TUDCA] |  | as a substrate |  | Yes | > 50 | inhibited | Yes | did not inhibit | No |  | not a substrate | No | not a substrate | No | > 50 |  | 
ursodeoxycholic acid |  | not a substrate |  | No | < 500 | inhibited | Yes | inhibited | Yes |  | not a substrate | No | not a substrate | No | < 500 | < 500 | < 500
